Experimental findings from ChEMBL document CHEMBL4387773, “Identification of potent, selective and orally bioavailable phenyl ((R)-3-phenylpyrrolidin-3-yl)sulfone analogues as RORγt inverse agonists” (Bioorg Med Chem Lett, 2019) are described below.

The first data set has as its target T1, Oxysterols receptor LXR-alpha (Homo sapiens, UniProt Q13133).
T1 sequence (Q13133 whole entry): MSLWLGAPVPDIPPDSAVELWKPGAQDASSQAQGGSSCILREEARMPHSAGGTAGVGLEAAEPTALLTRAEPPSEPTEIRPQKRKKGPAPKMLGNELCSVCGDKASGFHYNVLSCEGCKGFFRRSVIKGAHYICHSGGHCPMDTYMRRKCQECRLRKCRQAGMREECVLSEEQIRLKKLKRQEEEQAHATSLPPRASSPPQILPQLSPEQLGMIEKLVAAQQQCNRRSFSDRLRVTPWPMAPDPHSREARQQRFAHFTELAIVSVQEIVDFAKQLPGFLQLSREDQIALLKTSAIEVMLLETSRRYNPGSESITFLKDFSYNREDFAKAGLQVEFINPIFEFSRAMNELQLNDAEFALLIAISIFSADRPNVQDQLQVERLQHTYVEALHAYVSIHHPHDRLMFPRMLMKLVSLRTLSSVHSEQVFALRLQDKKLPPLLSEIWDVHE
The data set can be described thus: Transactivation of human GAL4-fused LXRalpha expressed in African green monkey CV1 cells. The data set is classed as cell-based.
Settings: not given
As to `O=C(C1CCS(=O)(=O)CC1)N1CC[C@](c2ccc(C(F)(C(F)(F)F)C(F)(F)F)cc2)(S(=O)(=O)c2ccc(F)cc2)C1`, the EC50 was over 7.5 µM.

Molecule `CCC[C@]1(C(=O)N2CC[C@](c3ccc(C(F)(C(F)(F)F)C(F)(F)F)cc3)(S(=O)(=O)c3ccc(F)cc3)C2)CC[C@H](C(=O)O)CC1` showed an EC50 of over 7.5 µM.

Molecule `O=C(O)[C@@H]1[C@@H]2C[C@@H](C(=O)N3CC[C@](c4ccc(C(F)(C(F)(F)F)C(F)(F)F)cc4)(S(=O)(=O)c4ccc(F)cc4)C3)C[C@@H]21` displayed a concentration for a half-maximal effect (EC50) of over 7.5 µM.

In turn, `O=C(N1CC[C@](c2ccc(C(F)(C(F)(F)F)C(F)(F)F)cc2)(S(=O)(=O)c2ccc(F)cc2)C1)C1(O)CCS(=O)(=O)CC1` returned an EC50 of over 7.5 µM.

The target of the next data set is T2, Nuclear receptor ROR-beta (Homo sapiens, UniProt Q92753).
T2 sequence (Q92753 whole entry): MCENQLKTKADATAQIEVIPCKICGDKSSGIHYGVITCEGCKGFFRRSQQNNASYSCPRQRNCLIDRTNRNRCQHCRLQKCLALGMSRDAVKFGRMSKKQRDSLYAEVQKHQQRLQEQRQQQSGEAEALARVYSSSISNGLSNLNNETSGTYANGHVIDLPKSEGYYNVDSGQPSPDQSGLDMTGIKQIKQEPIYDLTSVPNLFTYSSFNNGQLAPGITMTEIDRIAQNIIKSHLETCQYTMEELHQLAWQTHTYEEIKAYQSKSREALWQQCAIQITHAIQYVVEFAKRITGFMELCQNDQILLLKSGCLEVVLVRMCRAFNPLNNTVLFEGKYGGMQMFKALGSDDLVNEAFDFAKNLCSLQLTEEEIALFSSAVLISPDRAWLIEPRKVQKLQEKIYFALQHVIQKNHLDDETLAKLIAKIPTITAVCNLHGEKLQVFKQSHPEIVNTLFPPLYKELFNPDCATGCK
The data set can be described thus: Inverse agonist activity at human Gal4-fused RORbeta LBD (200 to 559 residues) expressed in human Jurkat cells measured after 18 hrs by steady-glo luciferase reporter gene assay. Type of data set: cell-based.
Settings: not given
`O=C(C1CCS(=O)(=O)CC1)N1CC[C@](c2ccc(C(F)(C(F)(F)F)C(F)(F)F)cc2)(S(=O)(=O)c2ccc(F)cc2)C1` registered an EC50 of over 40 µM.

Take `CCC[C@]1(C(=O)N2CC[C@](c3ccc(C(F)(C(F)(F)F)C(F)(F)F)cc3)(S(=O)(=O)c3ccc(F)cc3)C2)CC[C@H](C(=O)O)CC1`: the half-maximal effective concentration (EC50) was over 40 µM.

Molecule `O=C(O)[C@@H]1[C@@H]2C[C@@H](C(=O)N3CC[C@](c4ccc(C(F)(C(F)(F)F)C(F)(F)F)cc4)(S(=O)(=O)c4ccc(F)cc4)C3)C[C@@H]21` showed an EC50 of over 40 µM.

Molecule `O=C(N1CC[C@](c2ccc(C(F)(C(F)(F)F)C(F)(F)F)cc2)(S(=O)(=O)c2ccc(F)cc2)C1)C1(O)CCS(=O)(=O)CC1` registered a concentration for a half-maximal effect (EC50) of over 40 µM.

System in the next data set: not listed separately
The data set can be described thus: Stability in mouse liver microsomes assessed as parent compound remaining after 10 mins. To be noted: liver microsomes, read-out: Stability. Type of data set: ADME, Microsome.
Take `O=C(C1CCS(=O)(=O)CC1)N1CC[C@](c2ccc(C(F)(C(F)(F)F)C(F)(F)F)cc2)(S(=O)(=O)c2ccc(F)cc2)C1`: the remaining at 10 min was 96%.

Consider `O=C(O)[C@@H]1[C@@H]2C[C@@H](C(=O)N3CC[C@](c4ccc(C(F)(C(F)(F)F)C(F)(F)F)cc4)(S(=O)(=O)c4ccc(F)cc4)C3)C[C@@H]21`, for which the remaining at 10 min is 84%.

With `O=C(N1CC[C@](c2ccc(C(F)(C(F)(F)F)C(F)(F)F)cc2)(S(=O)(=O)c2ccc(F)cc2)C1)C1(O)CCS(=O)(=O)CC1`, the remaining at 10 min was determined as 90%.

A further data set addresses T3, PXR (Homo sapiens, UniProt O75469).
T3 sequence (O75469 whole entry): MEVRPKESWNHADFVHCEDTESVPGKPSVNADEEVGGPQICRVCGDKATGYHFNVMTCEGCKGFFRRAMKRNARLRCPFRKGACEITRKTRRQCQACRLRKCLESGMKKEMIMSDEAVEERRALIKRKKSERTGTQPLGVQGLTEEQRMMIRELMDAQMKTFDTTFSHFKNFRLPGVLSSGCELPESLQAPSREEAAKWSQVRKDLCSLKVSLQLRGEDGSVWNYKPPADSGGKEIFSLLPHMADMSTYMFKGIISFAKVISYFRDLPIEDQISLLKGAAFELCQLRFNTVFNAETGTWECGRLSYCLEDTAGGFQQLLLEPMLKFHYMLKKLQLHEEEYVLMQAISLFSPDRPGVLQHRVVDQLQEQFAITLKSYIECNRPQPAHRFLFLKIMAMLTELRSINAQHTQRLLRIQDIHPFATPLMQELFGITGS
Put plainly: Transactivation of PXR (unknown origin) expressed in human HepG2 cells assessed as maximum receptor activation response relative to control. Type of data set: cell-based. The settings on record: human HepG2 cells that express PXR, read-out: %max.
For the molecule `O=C(C1CCS(=O)(=O)CC1)N1CC[C@](c2ccc(C(F)(C(F)(F)F)C(F)(F)F)cc2)(S(=O)(=O)c2ccc(F)cc2)C1`, the Emax was 5%.

As to `O=C(O)[C@@H]1[C@@H]2C[C@@H](C(=O)N3CC[C@](c4ccc(C(F)(C(F)(F)F)C(F)(F)F)cc4)(S(=O)(=O)c4ccc(F)cc4)C3)C[C@@H]21`, the Emax turned out to be 11%.

Consider `O=C(N1CC[C@](c2ccc(C(F)(C(F)(F)F)C(F)(F)F)cc2)(S(=O)(=O)c2ccc(F)cc2)C1)C1(O)CCS(=O)(=O)CC1`, for which the Emax was 6%.

System in the next data set: not listed separately
Put plainly: Stability in human liver microsomes assessed as parent compound remaining after 10 mins. The data set is classed as ADME, Microsome. The settings on record: liver microsomes, read-out: Stability.
On to `O=C(C1CCS(=O)(=O)CC1)N1CC[C@](c2ccc(C(F)(C(F)(F)F)C(F)(F)F)cc2)(S(=O)(=O)c2ccc(F)cc2)C1`, for which the remaining at 10 min stood at 93%.

For `O=C(O)[C@@H]1[C@@H]2C[C@@H](C(=O)N3CC[C@](c4ccc(C(F)(C(F)(F)F)C(F)(F)F)cc4)(S(=O)(=O)c4ccc(F)cc4)C3)C[C@@H]21`, the remaining at 10 min was determined as 100%.

With `O=C(N1CC[C@](c2ccc(C(F)(C(F)(F)F)C(F)(F)F)cc2)(S(=O)(=O)c2ccc(F)cc2)C1)C1(O)CCS(=O)(=O)CC1`, the remaining at 10 min came out at 100%.

A further data set concerns the target T4, Oxysterols receptor LXR-beta (Homo sapiens, UniProt P55055).
T4 sequence (P55055 whole entry): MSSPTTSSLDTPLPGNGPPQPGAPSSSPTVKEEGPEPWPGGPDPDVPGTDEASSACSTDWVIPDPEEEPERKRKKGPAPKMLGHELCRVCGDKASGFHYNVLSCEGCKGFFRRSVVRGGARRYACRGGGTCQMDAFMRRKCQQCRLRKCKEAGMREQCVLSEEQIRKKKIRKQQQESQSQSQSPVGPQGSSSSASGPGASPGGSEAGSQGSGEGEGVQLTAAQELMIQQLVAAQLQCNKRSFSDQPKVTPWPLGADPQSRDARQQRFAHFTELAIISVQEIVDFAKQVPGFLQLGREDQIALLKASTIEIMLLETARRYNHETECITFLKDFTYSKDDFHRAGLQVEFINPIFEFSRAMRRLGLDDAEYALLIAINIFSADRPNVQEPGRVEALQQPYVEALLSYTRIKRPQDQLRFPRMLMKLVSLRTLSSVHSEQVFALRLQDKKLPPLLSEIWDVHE
The data set can be described thus: Transactivation of human GAL4-fused LXRbeta expressed in African green monkey CV1 cells.
Settings: not given
The data set is classed as cell-based.
`O=C(C1CCS(=O)(=O)CC1)N1CC[C@](c2ccc(C(F)(C(F)(F)F)C(F)(F)F)cc2)(S(=O)(=O)c2ccc(F)cc2)C1` came in with an EC50 of over 7.5 µM.

`CCC[C@]1(C(=O)N2CC[C@](c3ccc(C(F)(C(F)(F)F)C(F)(F)F)cc3)(S(=O)(=O)c3ccc(F)cc3)C2)CC[C@H](C(=O)O)CC1` came in with an EC50 of over 7.5 µM.

As for `O=C(O)[C@@H]1[C@@H]2C[C@@H](C(=O)N3CC[C@](c4ccc(C(F)(C(F)(F)F)C(F)(F)F)cc4)(S(=O)(=O)c4ccc(F)cc4)C3)C[C@@H]21`, the EC50 is over 7.5 µM.

`O=C(N1CC[C@](c2ccc(C(F)(C(F)(F)F)C(F)(F)F)cc2)(S(=O)(=O)c2ccc(F)cc2)C1)C1(O)CCS(=O)(=O)CC1` showed an EC50 of over 7.5 µM.

The target in another data set is T5, Nuclear receptor subfamily 1 group I member 2 (Homo sapiens, UniProt O75469).
T5 sequence (O75469 whole entry): T3 sequence (O75469 whole entry)
Put plainly: Transactivation of PXR (unknown origin) expressed in human HepG2 cells. The data set is classed as cell-based.
Settings: not given
`O=C(C1CCS(=O)(=O)CC1)N1CC[C@](c2ccc(C(F)(C(F)(F)F)C(F)(F)F)cc2)(S(=O)(=O)c2ccc(F)cc2)C1` had an EC50 of over 50 µM.

Molecule `O=C(O)[C@@H]1[C@@H]2C[C@@H](C(=O)N3CC[C@](c4ccc(C(F)(C(F)(F)F)C(F)(F)F)cc4)(S(=O)(=O)c4ccc(F)cc4)C3)C[C@@H]21` came in with an EC50 of over 50 µM.

For the molecule `O=C(N1CC[C@](c2ccc(C(F)(C(F)(F)F)C(F)(F)F)cc2)(S(=O)(=O)c2ccc(F)cc2)C1)C1(O)CCS(=O)(=O)CC1`, the EC50 is over 50 µM.

The target of another data set is T6, Nuclear receptor ROR-alpha (Homo sapiens, UniProt P35398).
T6 sequence (P35398 whole entry): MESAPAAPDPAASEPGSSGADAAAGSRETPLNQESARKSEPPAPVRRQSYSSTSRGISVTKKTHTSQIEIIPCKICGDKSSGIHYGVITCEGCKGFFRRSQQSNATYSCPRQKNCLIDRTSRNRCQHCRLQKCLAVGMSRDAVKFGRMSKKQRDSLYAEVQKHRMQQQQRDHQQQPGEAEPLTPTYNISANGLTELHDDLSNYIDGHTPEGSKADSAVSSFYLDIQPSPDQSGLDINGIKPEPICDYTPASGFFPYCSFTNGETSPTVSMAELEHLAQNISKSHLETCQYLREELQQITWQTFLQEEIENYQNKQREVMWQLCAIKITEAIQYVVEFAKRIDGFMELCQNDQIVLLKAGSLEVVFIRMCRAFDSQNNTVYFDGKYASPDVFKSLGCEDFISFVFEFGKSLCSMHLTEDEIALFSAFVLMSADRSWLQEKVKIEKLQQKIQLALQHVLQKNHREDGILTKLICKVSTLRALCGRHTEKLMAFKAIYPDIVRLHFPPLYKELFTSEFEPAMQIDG
Put plainly: Inverse agonist activity at human Gal4-fused RORalpha LBD (272 to 556 residues) expressed in human Jurkat cells measured after 18 hrs by steady-glo luciferase reporter gene assay. The data set is classed as cell-based.
Settings: not given
`O=C(C1CCS(=O)(=O)CC1)N1CC[C@](c2ccc(C(F)(C(F)(F)F)C(F)(F)F)cc2)(S(=O)(=O)c2ccc(F)cc2)C1` displayed an EC50 of over 40 µM.

`CCC[C@]1(C(=O)N2CC[C@](c3ccc(C(F)(C(F)(F)F)C(F)(F)F)cc3)(S(=O)(=O)c3ccc(F)cc3)C2)CC[C@H](C(=O)O)CC1` returned a concentration for a half-maximal effect (EC50) of over 40 µM.

`O=C(O)[C@@H]1[C@@H]2C[C@@H](C(=O)N3CC[C@](c4ccc(C(F)(C(F)(F)F)C(F)(F)F)cc4)(S(=O)(=O)c4ccc(F)cc4)C3)C[C@@H]21` displayed an EC50 of over 40 µM.

`O=C(N1CC[C@](c2ccc(C(F)(C(F)(F)F)C(F)(F)F)cc2)(S(=O)(=O)c2ccc(F)cc2)C1)C1(O)CCS(=O)(=O)CC1` returned a 50% effective concentration (EC50) of over 40 µM.
